Reference: PMC5218480 (PLoS ONE, 2017)

Tested on: MV-4-11 cells
Experiment: Gene expression microarray analysis (Affymetrix PrimeView) and GSEA
Format: cell-based, human
Design: RFU PODN (11730768_x_at) / Fold change /veh PODN (11730768_x_at) / RFU LINC00158 (11744669_a_at) / Fold change /veh LINC00158 (11744669_a_at) / RFU DUSP10 (11751237_a_at) / Fold change /veh DUSP10 (11751237_a_at) / RFU ID3 (11757404_x_at) / Fold change /veh ID3 (11757404_x_at) / RFU PLEKHG5 (11737974_s_at) / Fold change /veh PLEKHG5 (11737974_s_at) / RFU LRRC4B (11730491_at) / Fold change /veh LRRC4B (11730491_at) / RFU GIMAP4 (11747438_a_at) / Fold change /veh GIMAP4 (11747438_a_at) / RFU KRT8 (11758183_x_at) / Fold change /veh KRT8 (11758183_x_at) / RFU CNN1 (11734310_a_at) / Fold change /veh CNN1 (11734310_a_at) / RFU VPS37D (11726825_at) / Fold change /veh VPS37D (11726825_at) / RFU C10orf10 (11716522_x_at) / Fold change /veh C10orf10 (11716522_x_at) / RFU KIR2DL2 /// KIR2DL4 /// KIR2DL5A /// KIR2DL5B /// KIR2DS1 /// KIR2DS2 /// KIR2DS3 /// KIR2DS4 /// KIR3DL3 /// KIR3DL3 /// KIR3DS1 (11738374_at) / Fold change /veh KIR2DL2 /// KIR2DL4 /// KIR2DL5A /// KIR2DL5B /// KIR2DS1 /// KIR2DS2 /// KIR2DS3 /// KIR2DS4 /// KIR3DL3 /// KIR3DL3 /// KIR3DS1 (11738374_at) / RFU C1QL1 (11718748_at) / Fold change /veh C1QL1 (11718748_at) / RFU TMPRSS4 (11747572_a_at) / Fold change /veh TMPRSS4 (11747572_a_at) / RFU HAMP (11756126_x_at) / Fold change /veh HAMP (11756126_x_at) / RFU RNFT2 (11725882_a_at) / Fold change /veh RNFT2 (11725882_a_at) / RFU NR4A2 (11747474_a_at) / Fold change /veh NR4A2 (11747474_a_at) / RFU ABCC12 (11746883_a_at) / Fold change /veh ABCC12 (11746883_a_at) / RFU TMEM136 (11760407_x_at) / Fold change /veh TMEM136 (11760407_x_at) / RFU CLDN22 /// WWC2 (11732394_at) / Fold change /veh CLDN22 /// WWC2 (11732394_at) / RFU HLA-DPB1 (11760878_x_at) / Fold change /veh HLA-DPB1 (11760878_x_at) / RFU SPINT1 (11716480_a_at) / Fold change /veh SPINT1 (11716480_a_at) / RFU GAP43 (11754022_s_at) / Fold change /veh GAP43 (11754022_s_at) / RFU A4GNT (11735810_at) / Fold change /veh A4GNT (11735810_at) / RFU PRB3 (11715151_x_at) / Fold change /veh PRB3 (11715151_x_at) / RFU TUBB4B (11761932_at) / Fold change /veh TUBB4B (11761932_at) / RFU CAPN14 (11732068_a_at) / Fold change /veh CAPN14 (11732068_a_at) / RFU TMCC2 (11721928_a_at) / Fold change /veh TMCC2 (11721928_a_at) / RFU IRGQ (11745062_a_at) / Fold change /veh IRGQ (11745062_a_at) / RFU FAM174B (11720279_a_at) / Fold change /veh FAM174B (11720279_a_at) / RFU TMPRSS4 (11748680_a_at) / Fold change /veh TMPRSS4 (11748680_a_at) / RFU FAM212B (11763350_a_at) / Fold change /veh FAM212B (11763350_a_at) / RFU PLEKHG5 (11743358_a_at) / Fold change /veh PLEKHG5 (11743358_a_at) / RFU ZSCAN30 (11745921_a_at) / Fold change /veh ZSCAN30 (11745921_a_at) / RFU CMKLR1 (11741424_a_at) / Fold change /veh CMKLR1 (11741424_a_at) / RFU LOC101060620 /// MAPK8IP1 (11723275_at) / Fold change /veh LOC101060620 /// MAPK8IP1 (11723275_at) / RFU SPTSSB (11747773_x_at) / Fold change /veh SPTSSB (11747773_x_at) / RFU PRSS12 (11739890_at) / Fold change /veh PRSS12 (11739890_at) / RFU BIN1 (11741810_x_at) / Fold change /veh BIN1 (11741810_x_at) / RFU WNT11 (11732464_a_at) / Fold change /veh WNT11 (11732464_a_at) / RFU C10orf10 (11716521_a_at) / Fold change /veh C10orf10 (11716521_a_at) / RFU C5orf56 (11738089_at) / Fold change /veh C5orf56 (11738089_at) / RFU CYB561 (11721691_x_at) / Fold change /veh CYB561 (11721691_x_at) / RFU ANKRD19P (11752326_a_at) / Fold change /veh ANKRD19P (11752326_a_at) / RFU OR2T12 /// OR2T33 /// OR2T8 (11738714_s_at) / Fold change /veh OR2T12 /// OR2T33 /// OR2T8 (11738714_s_at) / RFU VCAN (11748164_a_at) / Fold change /veh VCAN (11748164_a_at) / RFU JSRP1 (11732532_at) / Fold change /veh JSRP1 (11732532_at) / RFU KRTAP10-11 (11738290_x_at) / Fold change /veh KRTAP10-11 (11738290_x_at) / RFU MYO3A (11730013_a_at) / Fold change /veh MYO3A (11730013_a_at) / RFU EBF3 (11725865_a_at) / Fold change /veh EBF3 (11725865_a_at) / RFU CAMK2N1 (11719241_x_at) / Fold change /veh CAMK2N1 (11719241_x_at) / RFU C5orf56 (11738088_a_at) / Fold change /veh C5orf56 (11738088_a_at) / RFU OLFML3 (11715873_a_at) / Fold change /veh OLFML3 (11715873_a_at) / RFU LOC100653217 /// NTM (11731650_a_at) / Fold change /veh LOC100653217 /// NTM (11731650_a_at) / RFU MAPK11 (11762145_a_at) / Fold change /veh MAPK11 (11762145_a_at) / RFU FIZ1 (11724087_x_at) / Fold change /veh FIZ1 (11724087_x_at) / RFU OASL (11726364_x_at) / Fold change /veh OASL (11726364_x_at) / RFU SOX15 (11748057_x_at) / Fold change /veh SOX15 (11748057_x_at) / RFU CD79A (11719716_a_at) / Fold change /veh CD79A (11719716_a_at) / RFU HIST1H1D (11736915_at) / Fold change /veh HIST1H1D (11736915_at) / RFU CASKIN2 (11723855_a_at) / Fold change /veh CASKIN2 (11723855_a_at) / RFU LOC730098 (11760151_x_at) / Fold change /veh LOC730098 (11760151_x_at) / RFU OR4N2 (11742367_at) / Fold change /veh OR4N2 (11742367_at) / RFU PRRT2 (11749266_a_at) / Fold change /veh PRRT2 (11749266_a_at) / RFU SNX32 (11753110_a_at) / Fold change /veh SNX32 (11753110_a_at) / RFU CDHR5 (11726645_a_at) / Fold change /veh CDHR5 (11726645_a_at) / RFU RCAN1 (11760418_a_at) / Fold change /veh RCAN1 (11760418_a_at) / RFU FAM167A (11723789_a_at) / Fold change /veh FAM167A (11723789_a_at) / RFU FAM26E (11764081_at) / Fold change /veh FAM26E (11764081_at) / RFU ISYNA1 (11749810_s_at) / Fold change /veh ISYNA1 (11749810_s_at) / RFU ACY1 (11761880_at) / Fold change /veh ACY1 (11761880_at) / RFU 11764098_at / Fold change /veh 11764098_at / RFU SAMD14 (11745864_x_at) / Fold change /veh SAMD14 (11745864_x_at) / RFU NPB (11741838_a_at) / Fold change /veh NPB (11741838_a_at) / RFU TMPRSS6 (11731388_a_at) / Fold change /veh TMPRSS6 (11731388_a_at) / RFU KRTAP10-2 (11738614_at) / Fold change /veh KRTAP10-2 (11738614_at) / RFU ARHGAP8 /// PRR5-ARHGAP8 (11727945_x_at) / Fold change /veh ARHGAP8 /// PRR5-ARHGAP8 (11727945_x_at) / RFU KRTAP5-7 /// NADSYN1 (11734609_at) / Fold change /veh KRTAP5-7 /// NADSYN1 (11734609_at) / RFU RASL12 (11751679_a_at) / Fold change /veh RASL12 (11751679_a_at) / RFU CDKN2B (11736163_a_at) / Fold change /veh CDKN2B (11736163_a_at) / RFU PRF1 (11729649_at) / Fold change /veh PRF1 (11729649_at) / RFU, ZNF638 /// ZNF638-IT1 / Fold change vs veh, ZNF638 /// ZNF638-IT1 / RFU, PANK3 / Fold change vs veh, PANK3 / RFU, SH3YL1 / Fold change vs veh, SH3YL1 / RFU, ZEB2 / Fold change vs veh, ZEB2 / RFU, NRIP1 / Fold change vs veh, NRIP1 / RFU, PTTG1IP / Fold change vs veh, PTTG1IP / RFU, CAPN2 / Fold change vs veh, CAPN2 / RFU, MED14 / Fold change vs veh, MED14 / RFU, SNORA58 / Fold change vs veh, SNORA58 / RFU, C1orf63 / Fold change vs veh, C1orf63 / RFU, LRRFIP1 / Fold change vs veh, LRRFIP1 / RFU, NDUFAF7 / Fold change vs veh, NDUFAF7 / RFU, SLC12A2 / Fold change vs veh, SLC12A2 / RFU, IBTK / Fold change vs veh, IBTK / RFU, ESF1 / Fold change vs veh, ESF1 / Fold change vs veh, TMEM50B / RFU, TAOK1 / Fold change vs veh, TAOK1 / RFU, ACBD3 / Fold change vs veh, ACBD3 / RFU, TMA16 / Fold change vs veh, TMA16 / RFU, RWDD3 / Fold change vs veh, RWDD3 / RFU, BCAT1 / Fold change vs veh, BCAT1 / RFU, EDEM3 / Fold change vs veh, EDEM3 / RFU, TMEM33 / Fold change vs veh, TMEM33 / RFU, WDR75 / Fold change vs veh, WDR75 / RFU, AHCTF1 / Fold change vs veh, AHCTF1 / RFU, TFRC / Fold change vs veh, TFRC / RFU, ZDHHC17 / Fold change vs veh, ZDHHC17 / RFU, NOM1 / Fold change vs veh, NOM1 / RFU, ARL8B / Fold change vs veh, ARL8B / RFU, ZBTB11 / Fold change vs veh, ZBTB11 / RFU, TAMM41 / Fold change vs veh, TAMM41 / RFU, KIAA1704 /// LOC100996395 / Fold change vs veh, KIAA1704 /// LOC100996395 / RFU, ING1 / Fold change vs veh, ING1 / RFU, TRMT61B / Fold change vs veh, TRMT61B / RFU, FUBP3 / Fold change vs veh, FUBP3 / RFU, TP53 / Fold change vs veh, TP53 / RFU, TNKS2 / Fold change vs veh, TNKS2 / RFU, ZFP14 / Fold change vs veh, ZFP14 / RFU, ACTR2 / Fold change vs veh, ACTR2 / RFU, PPP3R1 / Fold change vs veh, PPP3R1 / RFU, PIK3R1 / Fold change vs veh, PIK3R1 / RFU, HNRNPA1 / Fold change vs veh, HNRNPA1 / RFU, RNF170 / Fold change vs veh, RNF170 / RFU, ZNF28 / Fold change vs veh, ZNF28 / RFU, RNGTT / Fold change vs veh, RNGTT / RFU, OGT / Fold change vs veh, OGT / RFU, BRD1 / Fold change vs veh, BRD1 / RFU, MARS / Fold change vs veh, MARS / RFU, ZNF655 / Fold change vs veh, ZNF655 / RFU, FAHD1 / Fold change vs veh, FAHD1 / RFU, BDP1 / Fold change vs veh, BDP1 / RFU, LRRCC1 / Fold change vs veh, LRRCC1 / RFU, ARID1A / Fold change vs veh, ARID1A / RFU, ZNF146 / Fold change vs veh, ZNF146 / RFU, ZNF330 / Fold change vs veh, ZNF330 / RFU, GPN3 / Fold change vs veh, GPN3 / RFU, C9orf123 / Fold change vs veh, C9orf123 / RFU, N4BP2L2 / Fold change vs veh, N4BP2L2 / RFU, ARFIP1 / Fold change vs veh, ARFIP1 / RFU, FAM179B / Fold change vs veh, FAM179B / RFU, BCL10 / Fold change vs veh, BCL10 / RFU, UHRF1BP1L / Fold change vs veh, UHRF1BP1L / RFU, BET1 / Fold change vs veh, BET1 / RFU, CNOT2 / Fold change vs veh, CNOT2 / RFU, ZNF268 / Fold change vs veh, ZNF268 / Fold change vs veh, ZNF507 / RFU, DGCR2 / Fold change vs veh, DGCR2 / RFU, WDSUB1 / Fold change vs veh, WDSUB1 / Fold change vs veh, HSP90B1 /// MIR3652 / RFU, ADSS / Fold change vs veh, ADSS / RFU, GK / Fold change vs veh, GK / RFU, ZNF148 / Fold change vs veh, ZNF148 / RFU, TAF9 / Fold change vs veh, TAF9 / RFU, SLC1A5 / Fold change vs veh, SLC1A5 / RFU, SLMO2 / Fold change vs veh, SLMO2 / RFU, ABCC4 / Fold change vs veh, ABCC4 / RFU, LOC101060439 /// RAP1B / Fold change vs veh, LOC101060439 /// RAP1B / RFU, RFX7 / Fold change vs veh, RFX7 / RFU, GTPBP10 / Fold change vs veh, GTPBP10 / RFU, CNEP1R1 / Fold change vs veh, CNEP1R1 / RFU, BIVM-ERCC5 /// ERCC5 / Fold change vs veh, BIVM-ERCC5 /// ERCC5 / RFU, ILF3 / Fold change vs veh, ILF3 / RFU 11762660_at / Fold change /veh 11762660_at / RFU VCAN (11757783_s_at) / Fold change /veh VCAN (11757783_s_at) / RFU DDX43 (11728927_at) / Fold change /veh DDX43 (11728927_at) / RFU KRT8 (11758188_x_at) / Fold change /veh KRT8 (11758188_x_at) / RFU NKD1 (11759106_at) / Fold change /veh NKD1 (11759106_at) / RFU SRD5A1 (11742802_a_at) / Fold change /veh SRD5A1 (11742802_a_at) / RFU TPSAB1 /// TPSB2 (11721975_s_at) / Fold change /veh TPSAB1 /// TPSB2 (11721975_s_at) / RFU GSTM3 (11746129_a_at) / Fold change /veh GSTM3 (11746129_a_at) / RFU IL23R (11737362_x_at) / Fold change /veh IL23R (11737362_x_at) / RFU TMEM51 (11727254_a_at) / Fold change /veh TMEM51 (11727254_a_at) / RFU PIWIL2 (11732686_x_at) / Fold change /veh PIWIL2 (11732686_x_at) / RFU ORM1 (11744905_x_at) / Fold change /veh ORM1 (11744905_x_at) / RFU CCDC152 (11743942_at) / Fold change /veh CCDC152 (11743942_at) / RFU ECM1 (11717891_a_at) / Fold change /veh ECM1 (11717891_a_at) / RFU IL23R (11748794_a_at) / Fold change /veh IL23R (11748794_a_at) / RFU TNFAIP8L3 (11732012_x_at) / Fold change /veh TNFAIP8L3 (11732012_x_at) / RFU MBOAT4 (11741988_at) / Fold change /veh MBOAT4 (11741988_at) / RFU 11764193_at / Fold change /veh 11764193_at / RFU TMEM53 (11763286_at) / Fold change /veh TMEM53 (11763286_at) / RFU MAGEB2 (11727129_at) / Fold change /veh MAGEB2 (11727129_at) / RFU TMEM200A (11744735_a_at) / Fold change /veh TMEM200A (11744735_a_at) / RFU CCDC152 (11751479_a_at) / Fold change /veh CCDC152 (11751479_a_at) / RFU FAM211A (11726209_a_at) / Fold change /veh FAM211A (11726209_a_at) / RFU RGS16 (11746705_a_at) / Fold change /veh RGS16 (11746705_a_at) / RFU VCAN (11755009_s_at) / Fold change /veh VCAN (11755009_s_at) / RFU RHOB (11743442_s_at) / Fold change /veh RHOB (11743442_s_at) / RFU RGS16 (11720943_a_at) / Fold change /veh RGS16 (11720943_a_at) / RFU RGS16 (11720944_at) / Fold change /veh RGS16 (11720944_at) / RFU, VPS4B / Fold change vs veh, VPS4B / RFU, CREB1 / Fold change vs veh, CREB1 / RFU, DNAJC13 / Fold change vs veh, DNAJC13 / RFU, GNAQ / Fold change vs veh, GNAQ / RFU, CDK5R1 / Fold change vs veh, CDK5R1 / RFU, ZRANB3 / Fold change vs veh, ZRANB3 / RFU, CUL4A / Fold change vs veh, CUL4A / RFU, CCNY / Fold change vs veh, CCNY / RFU, UFL1 / Fold change vs veh, UFL1 / RFU, COG3 / Fold change vs veh, COG3 / RFU, DIAPH2 / Fold change vs veh, DIAPH2 / RFU, SKA2 / Fold change vs veh, SKA2 / RFU, AFF3 / Fold change vs veh, AFF3 / RFU, LMF1 / Fold change vs veh, LMF1 / RFU, IPO11 / Fold change vs veh, IPO11 / RFU, DFFB / Fold change vs veh, DFFB / RFU, FOXP1 / Fold change vs veh, FOXP1 / RFU, CARD8 / Fold change vs veh, CARD8 / RFU, STRN3 / Fold change vs veh, STRN3 / RFU, ADK / Fold change vs veh, ADK / RFU, RASSF2 / Fold change vs veh, RASSF2 / RFU, WIPF1 / Fold change vs veh, WIPF1 / RFU, LARP1B / Fold change vs veh, LARP1B / RFU, RASA1 / Fold change vs veh, RASA1 / RFU, RB1 / Fold change vs veh, RB1 / RFU, PPFIA1 / Fold change vs veh, PPFIA1 / RFU, MAT2A / Fold change vs veh, MAT2A / RFU, CCT5 / Fold change vs veh, CCT5 / RFU, WDR92 / Fold change vs veh, WDR92 / RFU, CUX1 / Fold change vs veh, CUX1 / RFU, TTC7A / Fold change vs veh, TTC7A / RFU, TMEM135 / Fold change vs veh, TMEM135 / RFU, DEPTOR / Fold change vs veh, DEPTOR / RFU, CPM / Fold change vs veh, CPM / RFU, DNAJB6 / Fold change vs veh, DNAJB6 / RFU, CACNA2D3 / Fold change vs veh, CACNA2D3 / RFU, DTX4 / Fold change vs veh, DTX4 / RFU, TFCP2 / Fold change vs veh, TFCP2 / RFU, GMCL1 /// GMCL1P1 / Fold change vs veh, GMCL1 /// GMCL1P1 / RFU, AEBP2 / Fold change vs veh, AEBP2 / RFU, SNHG1 /// SNORD22 /// SNORD25 /// SNORD26 /// SNORD27 /// SNORD28 /// SNORD29 /// SNORD31 / Fold change vs veh, SNHG1 /// SNORD22 /// SNORD25 /// SNORD26 /// SNORD27 /// SNORD28 /// SNORD29 /// SNORD31 / Fold change (Aza/veh), C12orf56 (ProbeSet 11735607_a_at) / Fold change (ACY-1035/veh), C12orf56 (ProbeSet 11735607_a_at) / Fold change (Aza/veh), FGFR1OP (ProbeSet 11751329_s_at) / Fold change (ACY-1035/veh), FGFR1OP (ProbeSet 11751329_s_at) / Fold change (Aza/veh), VPS36 (ProbeSet 11739960_a_at) / Fold change (ACY-1035/veh), VPS36 (ProbeSet 11739960_a_at) / RFU SYPL1 (11715823_x_at) / Fold change /veh SYPL1 (11715823_x_at) / RFU IGFBP7 (11715501_s_at) / Fold change /veh IGFBP7 (11715501_s_at) / RFU REEP3 (11722064_at) / Fold change /veh REEP3 (11722064_at) / RFU IGLL1 (11728026_x_at) / Fold change /veh IGLL1 (11728026_x_at): dose or concentration left out as unconfirmed
Conditions: MV-4-11 cells, 48 hours

Nc1ncn([C@@H]2O[C@H](CO)[C@@H](O)[C@H]2O)c(=O)n1 [azacitidine]
Fold change /veh OLFML3 (11715873_a_at): 0.98
